Reference: patent US20240327928A1, “METHOD FOR IDENTIFYING RESPONSIVENESS TO FIBROBLAST GROWTH FACTOR RECEPTOR 1 INHIBITOR THERAPY” (UNIVERSITÄT ZU KÖLN, priority 2021, published 2024)

How the values were obtained:
[1] = test system: Ba/F3 cells expressing ΔEC-FGFR1; assay: Screening of Ba/F3 cells expressing ΔEC-FGFR1 with FGFR inhibitors (cellular ATP content after 96 hours); format: cell-based, murine; settings: IL3 depleted conditions
Text: Located genes in this region (middle, bottom; positive strand, negative strand), break coverage (top), location of tail-to-tail breaks (arrows and black dashed lines) are shown. Normal exon structure of NSD3 and FGFR1 with the genomic breaks are indicated by an asterisk independent of the chromosomal position shown above (bottom). b) Resulting rearrangement of the t-to-t break (dashed lines, top) and spanning reads from whole transcriptome sequencing data (bottom) is shown. c) PCR from corresponding cDNA with two different primer pairs, spanning the t-to-t break and FGFR1 (left) and matched normal cDNA (right) d) Hybrid-capture-based genomic sequencing (468×depth) copy number plot zoomed to the location of FGFR1 (middle). Tumor sample is from a patient with unknown response upon FGFR inhibition. Normal exon structure of FGFR1 (bottom), location of a tail-to-tail break (arrows), and break coverage (top) is shown. e) The resulting rearrangement of the t-to-t break is shown (dashed lines). f) Break spanning reads detected by ARCHER sequencing technique are indicated. g) Immunoblotting of transformed Baf3 cells (Baf3 FGFR1 AEC and Baf3 EML4-ALK as control) vs. non-transformed Baf3 cells transduced with empty Vector (Baf3 e.V.), FGFR1 alpha (Baf3 FGFR1aplpa), and FGFR1 beta (Baf3 FGFR1beta). […]

H1581 = assay: GI50 screening of FGFR1-amplified lung cancer cell lines against FGFR inhibitors; format: cell-based; settings: Homo sapiens, NCI-H1581; sensitive cell line H1581; read-out: half-growth-inhibitory concentration, or GI50
Method: (§1) Bars are indicated by number (1) (GI50>1 μM) or number (2) (GI50>1 μM) b) Average copy number of 6 cell lines not sensitive upon FGFR inhibition (marked by number (1)) and 2 cell lines which are sensitive upon FGFR inhibition (marked by number (2)). Copy number was extracted from genomic sequencing or whole exome sequencing data and plotted to chromosome 8 (hg19) with ROBOCOP. Location of NSD3 and FGFR1 with grey-backed surface c) Average tumor growth reduction of 8 patient derived xenograft tumor models treated with BG.J398 vs. vehicle. All models were confirmed to be FGFR1 amplified by FGFR1 FISH. Each bar represents an experiment of at least six mice and 12 tumors. Bars are marked by number (1) (tumor reduction of <30%) or by number (2) (tumor reduction of >30%). d) Average copy number of 5 patient derived xenograft tumor models not benefitting from FGFR inhibition (marked by number (1)) and 3 patient derived xenograft tumor (PDX) models which benefit from FGFR inhibition (marked by number (2)). […]
(§2) To gain a deeper understanding of 8p11-8p12-amplified lung cancer tumors and to link specific patterns of the 8p12-8p11 amplicon structure with FGFR1 dependency, the inventors analyzed an independent cohort of 26 8p-amplified tumor specimens with known sensitivity to FGFR inhibition. […]

DMS114 = assay: as above; format: cell-based; settings: Homo sapiens, DMS-114; sensitive cell line DMS114; read-out: half-growth-inhibitory concentration, or GI50
Method: as §1, §2

[2] = test system: FGFR1 amplified patient derived xenograft (PDX) models of squamous cell lung cancer; assay: Patient derived xenograft tumor models treated with BG.J398 vs. vehicle; format: in vivo, mice; settings: 20 mg/kg daily oral
Method: Bars are indicated by number (1) (GI50>1 μM) or number (2) (GI50>1 μM) b) Average copy number of 6 cell lines not sensitive upon FGFR inhibition (marked by number (1)) and 2 cell lines which are sensitive upon FGFR inhibition (marked by number (2)). Copy number was extracted from genomic sequencing or whole exome sequencing data and plotted to chromosome 8 (hg19) with ROBOCOP. Location of NSD3 and FGFR1 with grey-backed surface c) Average tumor growth reduction of 8 patient derived xenograft tumor models treated with BG.J398 vs. vehicle. All models were confirmed to be FGFR1 amplified by FGFR1 FISH. Each bar represents an experiment of at least six mice and 12 tumors. Bars are marked by number (1) (tumor reduction of <30%) or by number (2) (tumor reduction of >30%). d) Average copy number of 5 patient derived xenograft tumor models not benefitting from FGFR inhibition (marked by number (1)) and 3 patient derived xenograft tumor (PDX) models which benefit from FGFR inhibition (marked by number (2)). Copy number was extracted from genomic sequencing data and plotted to chromosome 8 (hg19) with ROBOCOP. e) Tumor volume change of patients with squamous cell lung cancer harboring FGFR1 amplification and treated with BG.J398. Tumor volume change was measured by RECIST criteria. […] TUM003 and TUM007 died during treatment and no sign of response. * labeled sample was an of label FGFR inhibitor treated patient where no RECIST data were available. f) Average copy number of 5 patients with progressive disease (marked by number (2)) and 4 patients with durable, partial response upon FGFR inhibition (marked by number (1), one patient was treated with an off label used FGFR inhibitor (GW786034 HCl). […]
Furthermore, the inventors analysed patient-derived 8p12-8p11-amplified squamous cell lung cancer xenotransplant models. In total, the inventors performed FGFR1 fluorescence in situ hybridization (FISH) on 35 patient derived xenograft (PDX) models from EpoBerlin, 39 PDX models from Crown Bioscience Inc., 3 samples of Moro Massimo as previously described. […]

[3] = test system: FGFR1-amplified squamous cell lung cancer; assay: Patients with FGFR1-amplified squamous cell lung cancer treated with an FGFR inhibitor (phase I clinical trial / off-label use); format: in vivo, human; settings: 8 patients treated with BG.J398, phase I clinical trial
Method: Bars are indicated by number (1) (GI50>1 μM) or number (2) (GI50>1 μM) b) Average copy number of 6 cell lines not sensitive upon FGFR inhibition (marked by number (1)) and 2 cell lines which are sensitive upon FGFR inhibition (marked by number (2)). Copy number was extracted from genomic sequencing or whole exome sequencing data and plotted to chromosome 8 (hg19) with ROBOCOP. Location of NSD3 and FGFR1 with grey-backed surface c) Average tumor growth reduction of 8 patient derived xenograft tumor models treated with BG.J398 vs. vehicle. All models were confirmed to be FGFR1 amplified by FGFR1 FISH. Each bar represents an experiment of at least six mice and 12 tumors. Bars are marked by number (1) (tumor reduction of <30%) or by number (2) (tumor reduction of >30%). d) Average copy number of 5 patient derived xenograft tumor models not benefitting from FGFR inhibition (marked by number (1)) and 3 patient derived xenograft tumor (PDX) models which benefit from FGFR inhibition (marked by number (2)). Copy number was extracted from genomic sequencing data and plotted to chromosome 8 (hg19) with ROBOCOP. e) Tumor volume change of patients with squamous cell lung cancer harboring FGFR1 amplification and treated with BG.J398. […]
Finally, the inventors analyzed biopsy specimens obtained from 10 patients with FGFR1-amplified squamous cell lung cancer. […]

[4] = test system: FGFR1-amplified lung cancer cell lines; assay: GI50 screening of FGFR1-amplified lung cancer cell lines against FGFR inhibitors (6 resistant lines); format: cell-based; settings: 6 of 8 FGFR1-amplified lung cancer cell lines, read-out: half-growth-inhibitory concentration, or GI50
Method: as §1, §2

Row | GI50 (H1581) | GI50 (DMS114) | GI50 [4] | Compound | sensitivity to FGFR inhibition [1] | Average tumor growth reduction vs. vehicle ([2]; 3 PDX models which benefit, bars (2)) | Average tumor growth reduction vs. vehicle ([2]; 5 PDX models not benefitting, bars (1)) | PDX models sensitive to FGFR inhibition ([2]; 8 FGFR1 amplified PDX models) | patients with durable, partial response (tumor volume change by RECIST) [3] | patients with progressive disease (tumor volume change by RECIST) [3]
1 | < 1000 nM | < 1000 nM | > 1000 nM | CCN1CCN(c2ccc(Nc3cc(N(C)C(=O)Nc4c(Cl)c(OC)cc(OC)c4Cl)ncn3)cc2)CC1 [BG.J398] | highly sensitive | > 30% | < 30% | Three of the 8 patient derived xenotransplant (PDX) models were sensitive | 3 patients | 5 patients
2 |  |  |  | AZD4547 | highly sensitive |  |  |  |  | 
